Values quoted from earlier work in patent US6465495B1, “Preparation of pyridone-based phosphotyrosine mimetics and uses thereof” (OSI Pharmaceuticals, Inc., priority 1998, dated 2002).

Conditions: literature values

For N[C@@H](Cc1ccc(OP(=O)(O)O)cc1)C(=O)O [pTyr], which pKA2 is on record?
The pKA2 was 5.7.
